Data as given in PubChem BioAssay AID2060483 (Molecular Pharmacology Branch, DTP, NCI, 2025).

System: K24384-001-R-PDC complex spheroids, viability
Experiment: Anticancer human tumor K24384-001-R-PDC patient-derived pancreatic adenocarcinoma cell line growth inhibition [GQUAD]
Conditions: for IC50: curve of first compound; for viability, T/C: stronger effect = lower value
In short: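 Tumor cells were grown as complex spheroids with HUVEC endothelial cells and mesenchymal stem cells as stroma. G-quadruplex stabilizers were combined with targeted agents over half-log dilutions from near the clinical Cmax, or from 10 microM.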

[1] = second compound 0.0316 µM, first compound 0.0316 µM
[2] = second compound 0.0316 µM, first compound 0.316 µM
[3] = second compound 0.1 µM, first compound 0.0316 µM
[4] = second compound 0.1 µM, first compound 0.316 µM
[5] = second compound 0.316 µM, first compound 0.0316 µM
[6] = second compound 0.316 µM, first compound 0.316 µM
[7] = second compound 1 µM, first compound 0.0316 µM
[8] = second compound 1 µM, first compound 0.316 µM
[9] = second compound 3.16 µM, first compound 0.0316 µM
[10] = second compound 3.16 µM, first compound 0.316 µM
[11] = second compound 10 µM, first compound 0.0316 µM
[12] = second compound 10 µM, first compound 0.316 µM
[13] = second compound 0.0316 µM, first compound 0.000999 µM
[14] = second compound 0.0316 µM, first compound 0.00316 µM
[15] = second compound 0.0316 µM, first compound 0.00999 µM
[16] = second compound 0.0316 µM, first compound 0.0999 µM
[17] = second compound 0.1 µM, first compound 0.000999 µM
[18] = second compound 0.1 µM, first compound 0.00316 µM
[19] = second compound 0.1 µM, first compound 0.00999 µM
[20] = second compound 0.1 µM, first compound 0.0999 µM
[21] = second compound 0.316 µM, first compound 0.000999 µM
[22] = second compound 0.316 µM, first compound 0.00316 µM
[23] = second compound 0.316 µM, first compound 0.00999 µM
[24] = second compound 0.316 µM, first compound 0.0999 µM
[25] = second compound 1 µM, first compound 0.000999 µM
[26] = second compound 1 µM, first compound 0.00316 µM
[27] = second compound 1 µM, first compound 0.00999 µM
[28] = second compound 1 µM, first compound 0.0999 µM
[29] = second compound 3.16 µM, first compound 0.000999 µM
[30] = second compound 3.16 µM, first compound 0.00316 µM
[31] = second compound 3.16 µM, first compound 0.00999 µM
[32] = second compound 3.16 µM, first compound 0.0999 µM
[33] = second compound 10 µM, first compound 0.000999 µM
[34] = second compound 10 µM, first compound 0.00316 µM
[35] = second compound 10 µM, first compound 0.00999 µM
[36] = second compound 10 µM, first compound 0.0999 µM
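Further: spheroids exposed to compounds for seven days.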

With CC1COCCN1c1cc(-c2ccnn2C)c2ccnc(-c3ccn[nH]3)c2n1 (stereo unspecified) + CN(C)c1ccc(Nc2c3ccc(NC(=O)CCN4CCCC4)cc3nc3cc(NC(=O)CCN4CCCC4)ccc23)cc1 the IC50 (second compound 0.0316 µM) was 72.2 nM, the IC50 (second compound 0.1 µM) was 89.1 nM and the IC50 (second compound 0.316 µM) was 131 nM. The IC50 (second compound 1 µM) was 111 nM, the IC50 (second compound 3.16 µM) was 88.3 nM and the IC50 (second compound 10 µM) was 113 nM. The viability, T/C [1] was 69.7%, the viability, T/C (second compound 0.0316 µM, first compound 0.1 µM) was 41.9% and the viability, T/C [2] was 35.4%. It also gave a viability, T/C (second compound 0.0316 µM, first compound 1 µM) of 24.4%, a viability, T/C (second compound 0.0316 µM, first compound 3.16 µM) of 29.6% and a viability, T/C (second compound 0.0316 µM, first compound 10 µM) of 32.9%. For the same compound, the viability, T/C [3] was 67.6%, the viability, T/C (second compound 0.1 µM, first compound 0.1 µM) was 48% and the viability, T/C [4] was 27.2%. For the same compound, the viability, T/C (second compound 0.1 µM, first compound 1 µM) was 24.9%, the viability, T/C (second compound 0.1 µM, first compound 3.16 µM) was 30.9% and the viability, T/C (second compound 0.1 µM, first compound 10 µM) was 31.9%. The viability, T/C [5] was 79.2%, the viability, T/C (second compound 0.316 µM, first compound 0.1 µM) was 56.4% and the viability, T/C [6] was 26.1%. It also gave a viability, T/C (second compound 0.316 µM, first compound 1 µM) of 23.6%, a viability, T/C (second compound 0.316 µM, first compound 3.16 µM) of 33.6% and a viability, T/C (second compound 0.316 µM, first compound 10 µM) of 32.3%. For the same compound, the viability, T/C [7] was 78.1%, the viability, T/C (second compound 1 µM, first compound 0.1 µM) was 52% and the viability, T/C [8] was 24.3%. The viability, T/C (second compound 1 µM, first compound 1 µM) was 28.8%, the viability, T/C (second compound 1 µM, first compound 3.16 µM) was 34.2% and the viability, T/C (second compound 1 µM, first compound 10 µM) was 30.6%. For the same compound, the viability, T/C [9] was 91.4%, the viability, T/C (second compound 3.16 µM, first compound 0.1 µM) was 44.7% and the viability, T/C [10] was 30.9%. The viability, T/C (second compound 3.16 µM, first compound 1 µM) was 32.5%, the viability, T/C (second compound 3.16 µM, first compound 3.16 µM) was 30.8% and the viability, T/C (second compound 3.16 µM, first compound 10 µM) was 24.6%. It also gave a viability, T/C [11] of 79.6%, a viability, T/C (second compound 10 µM, first compound 0.1 µM) of 49% and a viability, T/C [12] of 43.1%. The viability, T/C (second compound 10 µM, first compound 1 µM) was 30.6%, the viability, T/C (second compound 10 µM, first compound 3.16 µM) was 28.5% and the viability, T/C (second compound 10 µM, first compound 10 µM) was 31.7%.
Work on Cc1[nH]c2ccccc2c1CCNCc1ccc(/C=C/C(=O)NO)cc1 + Cc1[nH]c2ccc(F)cc2c1-c1nc2c3cccnc3c3ncccc3c2[nH]1 yielded an IC50 (second compound 0.0316 µM) of 139 nM, an IC50 (second compound 0.1 µM) of 138 nM and an IC50 (second compound 0.316 µM) of 121 nM. For the same compound, the IC50 (second compound 1 µM) was 124 nM, the IC50 (second compound 3.16 µM) was 128 nM and the IC50 (second compound 10 µM) was 134 nM. For the same compound, the viability, T/C [13] was 103%, the viability, T/C [14] was 111% and the viability, T/C [15] was 119%. The viability, T/C [1] was 103%, the viability, T/C [16] was 67.9% and the viability, T/C [2] was 5.6%. It also gave a viability, T/C [17] of 99.1%, a viability, T/C [18] of 95.2% and a viability, T/C [19] of 98.7%. The viability, T/C [3] was 99.6%, the viability, T/C [20] was 66.7% and the viability, T/C [4] was 7.11%. It also gave a viability, T/C [21] of 95%, a viability, T/C [22] of 92.9% and a viability, T/C [23] of 101%. For the same compound, the viability, T/C [5] was 103%, the viability, T/C [24] was 58.6% and the viability, T/C [6] was 5.93%. It also gave a viability, T/C [25] of 91.3%, a viability, T/C [26] of 91.8% and a viability, T/C [27] of 124%. For the same compound, the viability, T/C [7] was 118%, the viability, T/C [28] was 60.1% and the viability, T/C [8] was 7.14%. The viability, T/C [29] was 81.3%, the viability, T/C [30] was 87.7% and the viability, T/C [31] was 77.3%. It also gave a viability, T/C [9] of 94.4%, a viability, T/C [32] of 61.1% and a viability, T/C [10] of 8.67%. The viability, T/C [33] was 77.2%, the viability, T/C [34] was 72.9% and the viability, T/C [35] was 77.2%. The viability, T/C [11] was 118%, the viability, T/C [36] was 65.4% and the viability, T/C [12] was 5.58%.
In the case of CC[C@@]1(O)C(=O)OCc2c1cc1n(c2=O)Cc2cc3c(CN(C)C)c(O)ccc3nc2-1 + Cc1cnc(CNC(=O)c2c(=O)c3ccc(N4CCCN(C)CC4)nc3n3c2sc2ccccc23)cn1, the IC50 (second compound 0.0316 µM) is reported as > 316 nM, the IC50 (second compound 0.1 µM) is reported as 214 nM and the IC50 (second compound 0.316 µM) is reported as 137 nM. For the same compound, the IC50 (second compound 1 µM) was < 0.999 nM, the IC50 (second compound 3.16 µM) was < 0.999 nM and the IC50 (second compound 10 µM) was < 0.999 nM. For the same compound, the viability, T/C [13] was 96.3%, the viability, T/C [14] was 71.1% and the viability, T/C [15] was 105%. The viability, T/C [1] was 64.1%, the viability, T/C [16] was 58.5% and the viability, T/C [2] was 44.1%. It also gave a viability, T/C [17] of 64.1%, a viability, T/C [18] of 69% and a viability, T/C [19] of 64.8%. For the same compound, the viability, T/C [3] was 58%, the viability, T/C [20] was 56.5% and the viability, T/C [4] was 47.1%. The viability, T/C [21] was 56.1%, the viability, T/C [22] was 55.2% and the viability, T/C [23] was 47.8%. It also gave a viability, T/C [5] of 49.9%, a viability, T/C [24] of 60.3% and a viability, T/C [6] of 39.8%. It also gave a viability, T/C [25] of 40.7%, a viability, T/C [26] of 51.3% and a viability, T/C [27] of 36.5%. For the same compound, the viability, T/C [7] was 42.7%, the viability, T/C [28] was 46% and the viability, T/C [8] was 37.6%. The viability, T/C [29] was 34.8%, the viability, T/C [30] was 39.1% and the viability, T/C [31] was 34.3%. The viability, T/C [9] was 39.6%, the viability, T/C [32] was 40.5% and the viability, T/C [10] was 30%. For the same compound, the viability, T/C [33] was 34.1%, the viability, T/C [34] was 22.9% and the viability, T/C [35] was 36.3%. The viability, T/C [11] was 38.4%, the viability, T/C [36] was 21.2% and the viability, T/C [12] was 0.39%.
